Reference: US7439242B2, “PPARγ modulators” (Amgen Inc., priority 1998, dated 2008)
pIC50: −log10 of the molar value.

How the values were obtained:
PPARγ = molecular target: T1, PPARγ (Homo sapiens, UniProt P37231); test: PPARγ ligand binding assay utilizing [3H]-BRL 49653 as the radioligand; details: concentration of test compound required to reduce by 50% the specific binding of [3H]-BRL 49653; methods similar to Lehmann et al.
T1 construct: made in house
T1 sequence (P37231 1-505): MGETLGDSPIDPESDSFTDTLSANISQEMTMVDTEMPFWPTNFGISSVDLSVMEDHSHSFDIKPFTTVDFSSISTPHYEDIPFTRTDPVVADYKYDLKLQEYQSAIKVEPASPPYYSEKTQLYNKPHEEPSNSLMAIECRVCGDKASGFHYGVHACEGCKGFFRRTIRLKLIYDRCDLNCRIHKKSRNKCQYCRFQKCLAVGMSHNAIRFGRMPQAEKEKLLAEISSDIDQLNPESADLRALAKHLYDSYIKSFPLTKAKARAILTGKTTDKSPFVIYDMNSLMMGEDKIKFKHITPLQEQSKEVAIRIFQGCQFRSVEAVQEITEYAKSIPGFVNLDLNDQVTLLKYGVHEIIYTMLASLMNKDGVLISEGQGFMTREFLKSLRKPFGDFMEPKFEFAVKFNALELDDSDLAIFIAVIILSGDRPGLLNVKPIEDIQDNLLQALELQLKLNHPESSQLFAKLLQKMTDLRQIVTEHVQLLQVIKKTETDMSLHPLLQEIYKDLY
From the text: The compounds of the present invention can be evaluated for modulation of the PPARγ receptor using assays such as those described in Jiang, et al., Nature 391:82-86 (1998), Ricote, et al., Nature 391:79-82 (1998) and Lehmann, et al., J. Biol. Chem. 270(12): 12953-12956 (1995). Alternatively, the compounds can be evaluated for their ability to displace radiolabeled BRL 49653 from a PPARγ-GST fusion protein as follows:
PPARγ-GST fusion protein (prepared according to standard procedures), [^3H]—BRL 49653 having 50 Ci/mmol specific activity, Polyfiltronics Unifilter 350 filtration plate and glutathione-Sepharose® beads (from Pharmacia: washed twice with 10×binding buffer in which BSA and DTT can be left out).
Binding buffer (10 mM Tris-HCl, pH 8.0, 50 mM KCl, 10 mM DTT, 0.02% BSA and 0.01% NP-40) is added in 80 microliter amounts to the wells of the filtration plate. The test compound is then added in 10 microliters of DMSO. The PPARγ-GST fusion protein and radiolabeled BRL compound are premixed in binding buffer containing 10 mM DTT and added in 10 microliter amounts to the wells of the plate to provide final concentrations of 1 μg/well of PPARγ-GST fusion protein and 10 nM [^3H]—BRL 49653 compound. The plate is incubated for 15 minutes. Glutathione-agarose bead is added in 50 μL of binding buffer, and the plate is vigorously shaken for one hour. The plate is washed four times with 200 μL/well of binding buffer (without BSA and DTT). The bottom of the plate is sealed and 200 μL/well of scintillation cocktail is added. The top of the plate is then sealed and the radioactivity is determined.
IC50 values are defined as the concentration of test compounds required to reduce by 50% the specific binding of [^3H]-BRL 49653.

Row | SMILES | pIC50 (PPARγ) | melting point
1 | CCOC(=O)c1cc(NS(=O)(=O)c2c(C)cc(Cl)cc2Cl)ccc1Oc1cncc(Cl)c1 [Example 7, ethyl 5-(2,4-dichloro6-methylbenzenesulfonamido)-2-(3-chloro5-pyridyloxy)benzoate] | 6.10 | 
2 | CCOC(=O)c1cc(NS(=O)(=O)c2ccc(OC)c(OC)c2)ccc1Oc1cncc(Cl)c1 [Example 4, ethyl 5-(3,4-dimethoxy-benzenesulfonamido)-2-(3-chloro-5-pyridyloxy)benzoate] | 6.52 | 
3 | CCOC(=O)c1cc(S(=O)(=O)Nc2ccc(Cl)cc2Cl)ccc1Oc1cncc(Cl)c1 [Example 40, ethyl 2-(3-chloro-5-pyridyloxy)-5-(2,4-dichlorophenylaminosulfonyl)benzoic acid] |  | 153 to 155 °C
4 | CCOC(=O)c1cc(NS(=O)(=O)c2ccc(C(F)(F)F)cn2)ccc1Oc1cncc(Cl)c1 [Example 21, ethyl 5-(5-trifluoromethyl-2-pyridinesulfonamido)-2-(3-chloro-5-pyridyloxy)benzoate] |  | 133 to 135 °C
5 | CCOC(=O)c1cc(NS(=O)(=O)c2cc(Br)ccc2OC)ccc1Oc1cncc(Cl)c1 [Example 3, ethyl 5-(2-methoxy-5-bromobenzenesulfonamido)-2-(3-chloro-5-pyridyloxy)benzoate] | 6.82 | 
6 | CCOC(=O)c1cc(NS(=O)(=O)c2cc([N+](=O)[O-])ccc2C)ccc1Oc1cncc(Cl)c1 [Example 5, ethyl 5-(2-methyl-5-nitrobenzenesulfonamido)-2-(3-chloro-5-pyridyloxy)benzoate] | 6.10 | 
7 | CCOC(=O)c1cc(NS(=O)(=O)c2cccnc2)ccc1Oc1cncc(Cl)c1 [Example 25, ethyl 5-(3-pyridinesulfonamido)-2-(3-chloro-5-pyridyloxy)benzoate] |  | 120 to 122 °C
8 | CCOC(=O)c1cc(NC(=O)c2ccc(Cl)cc2Cl)ccc1Oc1cncc(Cl)c1 [Example 41, ethyl 5-(2,4-dichlorobenzamido)-2-(3-chloro-5-pyridyloxy)benzoate] |  | 125 to 127 °C
9 | CCOC(=O)c1cc(NS(=O)(=O)c2ccc(Cl)nc2)ccc1Oc1cncc(Cl)c1 [Example 24, ethyl 5-(6-chloro-3-pyridinesulfonamido)-2-(3-chloro-5-pyridyloxy)benzoate] |  | 166 to 168 °C
10 | O=S(=O)(Nc1cc(C(F)(F)F)ccc1Oc1cncc(Cl)c1)c1ccc(Cl)cc1Cl [Example 43, 4-(3-chloro-5-pyridyloxy)-3-(2,4-dichlorobenzenesulfonamido)benzotrifluoride] |  | 150 to 151.5 °C
11 | O=S(=O)(Nc1ccccc1Oc1cncc(Cl)c1)c1ccc(Cl)cc1Cl [Example 32, 1-(3-chloro-5-pyridyloxy)-2-(2,4-dichlorobenzenesulfonamido)benzene] |  | 168 to 170 °C
12 | CCOC(=O)c1cc(NS(=O)(=O)c2c(Cl)cccc2Cl)ccc1Oc1cncc(Cl)c1 [Example 6, ethyl 5-(2,6-dichlorobenzenesulfonamido)-2-(3-chloro-5-pyridyloxy)benzoate] | 5.22 | 
